# Results: ChEMBL document CHEMBL3045524, “Development of a new acaricide, cyflumetofen” (J Pestic Sci, 2012)
# Experiments:
# Panonychus citri = assay: Acaricidal activity against Panonychus citri at developmental stages; type: functional
# [1] = Octanol-water partition co-efficient, log P of the compound; type: physicochemical
# Tetranychus kanzawai = assay: Acaricidal activity against Tetranychus kanzawai at developmental stages; type: functional
# Tetranychus urticae [2] = assay: Acaricidal activity against Tetranychus urticae (two-spotted spider mite) adult; type: functional
# Tetranychus urticae [3] = assay: Acaricidal activity against Tetranychus urticae (two-spotted spider mite) larvae; type: functional
# [4] = Solubility of the compound in water; type: physicochemical
smiles,measurement,setting,value
COCCOC(=O)C(C#N)(C(=O)c1ccccc1C(F)(F)F)c1ccc(C(C)(C)C)cc1 (racemic) [CYFLUMETOFEN],LC50,Panonychus citri,< 5 µg/mL
same,logP,[1],4.3
same,LC50,Tetranychus kanzawai,< 5 µg/mL
same,LC50,Tetranychus urticae [2],4.8 µg/mL
same,LC50,Tetranychus urticae [3],0.9 µg/mL
same,solubility,[4],0.0281 µg/mL
